{"source": "paper PMC8881501", "about": "“Identification of SARS-CoV-2 inhibitors targeting Mpro and PLpro using in-cell-protease assay” (Communications Biology, 2022)", "test_system": "SARS-CoV-2 delta variant", "assay_type": "cell-based", "conditions": "Huh 7.5, replicates", "note": "Where “and” joins values, the source holds several entries; their conditions need not be identical. Equal entries are not always repeated. Where two headings read alike, the source gives them in different places. Non-standard residues stand in square brackets, D forms with d. Residues, ends and D or L forms follow the SMILES beside them. Nle = CCCC[C@H](N)C(=O)O"}
{"smiles": "CCCC[C@@H](C=O)NC(=O)[C@H](CC(C)C)NC(=O)[C@H](CC(C)C)NC(C)=O", "note": "[MG-101] (Ac-Leu-Leu-[Nle]-aldehyde)", "values": [{"measurement": "virus titer of delta variant, Fig 6B data", "setting": "single drug 0.01 μM", "result": "640000 and 800000 and 400000"}, {"measurement": "virus titer of delta variant, Fig 6B data", "setting": "single drug 0.1 μM", "result": "400000 and 960000 and 800000"}, {"measurement": "virus titer of delta variant, Fig 6B data", "setting": "single drug 1 μM", "result": "240000 (2×) and 160000"}]}
{"smiles": "N[C@@H](CC(=O)N1CCn2c(nnc2C(F)(F)F)C1)Cc1cc(F)c(F)cc1F", "note": "[Sitagliptin]", "values": [{"measurement": "virus titer of delta variant, Fig 6B data", "setting": "single drug 0.01 μM", "result": "960000 and 720000 and 480000"}, {"measurement": "virus titer of delta variant, Fig 6B data", "setting": "single drug 0.1 μM", "result": "720000 and 400000 and 560000"}, {"measurement": "virus titer of delta variant, Fig 6B data", "setting": "single drug 1 μM", "result": "560000 and 720000 and 64000"}]}
